Measurements from PubChem BioAssay (NCI).
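Five concentrations, 48 hours, 96-well plates. The concentration for full growth arrest is given as TGI.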

Columns and labels:
Assay in all cases: NCI anticancer screen, dose series, 48 h
786-0 renal = tested on: 786-0 renal
A498 renal = tested on: A498 renal
A549 NSCLC = tested on: A549 NSCLC
ACHN renal = tested on: ACHN renal
BT-549 breast = tested on: BT-549 breast
CAKI-1 renal = tested on: CAKI-1 renal
CCRF-CEM leukemia = tested on: CCRF-CEM leukemia
COLO 205 colon = tested on: COLO 205 colon
DU-145 prostate = tested on: DU-145 prostate
EKVX NSCLC = tested on: EKVX NSCLC
HCC-2998 colon = tested on: HCC-2998 colon
HCT-116 colon = tested on: HCT-116 colon
HCT-15 colon = tested on: HCT-15 colon
HL-60(TB) leukemia = tested on: HL-60(TB) leukemia
HOP-62 NSCLC = tested on: HOP-62 NSCLC
HOP-92 NSCLC = tested on: HOP-92 NSCLC
HS 578T breast = tested on: HS 578T breast
HT29 colon = tested on: HT29 colon
IGROV1 ovarian = tested on: IGROV1 ovarian
K-562 leukemia = tested on: K-562 leukemia
KM12 colon = tested on: KM12 colon
LOX IMVI melanoma = tested on: LOX IMVI melanoma
M14 melanoma = tested on: M14 melanoma
MALME-3M melanoma = tested on: MALME-3M melanoma
MCF7 breast = tested on: MCF7 breast
MDA-MB-231 breast = tested on: MDA-MB-231 breast
MDA-MB-435 = tested on: MDA-MB-435
MDA-N = tested on: MDA-N
MOLT-4 leukemia = tested on: MOLT-4 leukemia
NCI-H226 lung = tested on: NCI-H226 lung
NCI-H23 lung = tested on: NCI-H23 lung
NCI-H460 lung = tested on: NCI-H460 lung
NCI-H522 lung = tested on: NCI-H522 lung
NCI/ADR-RES ovarian = tested on: NCI/ADR-RES ovarian
OVCAR-3 ovarian = tested on: OVCAR-3 ovarian
OVCAR-4 ovarian = tested on: OVCAR-4 ovarian
OVCAR-5 ovarian = tested on: OVCAR-5 ovarian
OVCAR-8 ovarian = tested on: OVCAR-8 ovarian
PC-3 prostate = tested on: PC-3 prostate
RPMI-8226 leukemia = tested on: RPMI-8226 leukemia
RXF 393 renal = tested on: RXF 393 renal
SF-268 CNS = tested on: SF-268 CNS
SF-295 CNS = tested on: SF-295 CNS
SF-539 CNS = tested on: SF-539 CNS
SK-MEL-2 melanoma = tested on: SK-MEL-2 melanoma
SK-MEL-28 melanoma = tested on: SK-MEL-28 melanoma
SK-MEL-5 melanoma = tested on: SK-MEL-5 melanoma
SK-OV-3 ovarian = tested on: SK-OV-3 ovarian
SN12C renal = tested on: SN12C renal
SNB-19 CNS = tested on: SNB-19 CNS
SNB-75 CNS = tested on: SNB-75 CNS
SR leukemia = tested on: SR leukemia
SW-620 colon = tested on: SW-620 colon
T-47D breast = tested on: T-47D breast
TK-10 renal = tested on: TK-10 renal
U251 CNS = tested on: U251 CNS
UACC-257 melanoma = tested on: UACC-257 melanoma
UACC-62 melanoma = tested on: UACC-62 melanoma
UO-31 renal = tested on: UO-31 renal

Measured: TGI

CC(=O)O[C@H]1CC[C@@]2(C)C(=CC[C@H]3[C@@H]4CC[C@H](c5cc(C(F)(F)F)n(C(C)=O)n5)[C@@]4(C)CC[C@@H]32)C1
16 µM: PC-3 prostate
25.8 µM: BT-549 breast
> 48.1 µM: SF-268 CNS
16.4 µM: IGROV1 ovarian
28.9 µM: SK-MEL-28 melanoma
23.6 µM: MDA-N
15.4 µM: HL-60(TB) leukemia
24.5 µM: CAKI-1 renal | UACC-62 melanoma
21.3 µM: EKVX NSCLC
12.5 µM: K-562 leukemia
6.43 µM: HOP-92 NSCLC
20.9 µM: KM12 colon
12.6 µM: NCI-H460 lung
22.5 µM: A498 renal
15.6 µM: OVCAR-4 ovarian
21.4 µM: MDA-MB-435
17.9 µM: RPMI-8226 leukemia
3.23 µM: UO-31 renal
24.8 µM: OVCAR-8 ovarian
22.4 µM: LOX IMVI melanoma
23.5 µM: DU-145 prostate
> 60.8 µM: HS 578T breast
14.5 µM: COLO 205 colon
18.7 µM: MCF7 breast | OVCAR-3 ovarian
49 µM: SW-620 colon
28.6 µM: NCI-H23 lung
21.2 µM: HOP-62 NSCLC
20.2 µM: ACHN renal
13.9 µM: UACC-257 melanoma
> 52.8 µM: MALME-3M melanoma
14.9 µM: TK-10 renal
21.9 µM: SF-539 CNS
27.3 µM: HCC-2998 colon
21.8 µM: HCT-15 colon
17 µM: SF-295 CNS
24 µM: NCI/ADR-RES ovarian | SNB-19 CNS
17.8 µM: RXF 393 renal
25 µM: T-47D breast
17.4 µM: HT29 colon
> 38.5 µM: NCI-H522 lung
8.39 µM: MOLT-4 leukemia
25.4 µM: SK-OV-3 ovarian
22.1 µM: M14 melanoma | OVCAR-5 ovarian
15.3 µM: SK-MEL-5 melanoma
14.8 µM: MDA-MB-231 breast | SR leukemia
17.7 µM: 786-0 renal
16.5 µM: U251 CNS
15.8 µM: HCT-116 colon
20.5 µM: A549 NSCLC
9.04 µM: CCRF-CEM leukemia
20.8 µM: all other assays above

CN(CCn1cnc2c1c(=O)n(C)c(=O)n2C)C1CCCCC1
> 100 µM: all assays above

O=[N+]([O-])C1CC/C(=N/O)c2nonc21 (stereo not given)
not listed: LOX IMVI melanoma | NCI-H522 lung | SK-MEL-2 melanoma | SK-OV-3 ovarian | SNB-75 CNS
> 10 µM: all other assays above

C[C@]12CC[C@H]3[C@@H](CC=C4C[C@@H](N5CCCC5)CC[C@@]43C)[C@@H]1C[C@H](N1CCOCC1)[C@@H]2O
74.3 µM: K-562 leukemia
71.5 µM: SR leukemia
> 10 µM: LOX IMVI melanoma | M14 melanoma | MCF7 breast
not listed: SK-MEL-2 melanoma
> 100 µM: all other assays above
